The NIST ThermoML archive (doi:10.1021/je1001413)

Conditions: Liquid, Vibrating tube method

CC(C)CCCCCCCOC(=O)c1ccccc1C(=O)OCCCCCCCC(C)C
Conditions | mass density [kg/m3]
283.15 K, 100 kPa | 974.5
283.15 K, 200 kPa | 974.5
283.15 K, 400 kPa | 974.6
283.15 K, 600 kPa | 974.7
283.15 K, 800 kPa | 974.9
283.15 K, 1010 kPa | 975
283.15 K, 2000 kPa | 975.5
283.15 K, 3020 kPa | 976
283.15 K, 4000 kPa | 976.6
283.15 K, 5000 kPa | 977.1
283.15 K, 6000 kPa | 977.7
283.15 K, 6980 kPa | 978.2
283.15 K, 8010 kPa | 978.7
283.15 K, 9020 kPa | 979.3
283.15 K, 10030 kPa | 979.8
283.15 K, 15000 kPa | 982.4
283.15 K, 19970 kPa | 985
283.15 K, 25030 kPa | 987.3
283.15 K, 29980 kPa | 989.8
283.15 K, 35030 kPa | 992.1
283.15 K, 40000 kPa | 994.5
283.15 K, 45030 kPa | 996.6
283.15 K, 49980 kPa | 998.8
283.15 K, 55030 kPa | 1000.9
283.15 K, 59990 kPa | 1002.6
283.15 K, 64990 kPa | 1005.1
288.15 K, 100 kPa | 970.7
288.15 K, 200 kPa | 970.8
288.15 K, 420 kPa | 970.9
288.15 K, 600 kPa | 971
288.15 K, 790 kPa | 971.1
288.15 K, 1000 kPa | 971.2
288.15 K, 1990 kPa | 971.7
288.15 K, 3020 kPa | 972.3
288.15 K, 4010 kPa | 972.9
288.15 K, 5000 kPa | 973.4
288.15 K, 6010 kPa | 974
288.15 K, 7020 kPa | 974.5
288.15 K, 7980 kPa | 975
288.15 K, 9000 kPa | 975.5
288.15 K, 10000 kPa | 976.1
288.15 K, 14990 kPa | 978.7
288.15 K, 19970 kPa | 981.4
288.15 K, 25000 kPa | 983.8
288.15 K, 30000 kPa | 986.4
288.15 K, 34990 kPa | 988.8
288.15 K, 40020 kPa | 991.1
288.15 K, 45000 kPa | 993.3
288.15 K, 49980 kPa | 995.7
288.15 K, 54980 kPa | 997.7
288.15 K, 60000 kPa | 999.9
288.15 K, 65000 kPa | 1002
293.15 K, 100 kPa | 967
293.15 K, 200 kPa | 967.1
293.15 K, 400 kPa | 967.2
293.15 K, 630 kPa | 967.3
293.15 K, 790 kPa | 967.4
293.15 K, 1000 kPa | 967.5
293.15 K, 2010 kPa | 968.1
293.15 K, 3020 kPa | 968.7
293.15 K, 4020 kPa | 969.2
293.15 K, 4970 kPa | 969.8
293.15 K, 5980 kPa | 970.3
293.15 K, 7020 kPa | 970.9
293.15 K, 8000 kPa | 971.5
293.15 K, 9020 kPa | 972
293.15 K, 10010 kPa | 972.6
293.15 K, 15010 kPa | 975.2
293.15 K, 20000 kPa | 977.9
293.15 K, 25030 kPa | 980.5
293.15 K, 30020 kPa | 983
293.15 K, 35030 kPa | 985.4
293.15 K, 40010 kPa | 987.8
293.15 K, 44980 kPa | 990.1
293.15 K, 50020 kPa | 992.4
293.15 K, 55020 kPa | 994.6
293.15 K, 60020 kPa | 996.8
293.15 K, 65000 kPa | 998.9
298.15 K, 100 kPa | 963.4
298.15 K, 200 kPa | 963.4
298.15 K, 410 kPa | 963.6
298.15 K, 620 kPa | 963.7
298.15 K, 820 kPa | 963.8
298.15 K, 1000 kPa | 963.9
298.15 K, 2020 kPa | 964.5
298.15 K, 3040 kPa | 965
298.15 K, 4030 kPa | 965.7
298.15 K, 4980 kPa | 966.2
298.15 K, 6070 kPa | 966.8
298.15 K, 7020 kPa | 967.3
298.15 K, 8040 kPa | 967.9
298.15 K, 9040 kPa | 968.5
298.15 K, 10030 kPa | 969
298.15 K, 15010 kPa | 971.7
298.15 K, 19990 kPa | 974.4
298.15 K, 25000 kPa | 977
298.15 K, 30020 kPa | 979.6
298.15 K, 35000 kPa | 982.1
298.15 K, 40020 kPa | 984.5
298.15 K, 44970 kPa | 986.9
298.15 K, 49990 kPa | 989.2
298.15 K, 54970 kPa | 991.4
298.15 K, 60000 kPa | 993.7
298.15 K, 65020 kPa | 995.8
303.15 K, 100 kPa | 959.7
303.15 K, 200 kPa | 959.8
303.15 K, 400 kPa | 959.9
303.15 K, 580 kPa | 960
303.15 K, 800 kPa | 960.2
303.15 K, 1000 kPa | 960.3
303.15 K, 2000 kPa | 960.9
303.15 K, 2990 kPa | 961.4
303.15 K, 4000 kPa | 962
303.15 K, 5000 kPa | 962.6
303.15 K, 6000 kPa | 963.2
303.15 K, 7000 kPa | 963.8
303.15 K, 7980 kPa | 964.3
303.15 K, 9000 kPa | 964.9
303.15 K, 10020 kPa | 965.5
303.15 K, 14970 kPa | 968.2
303.15 K, 20010 kPa | 971
303.15 K, 25030 kPa | 973.6
303.15 K, 30020 kPa | 976.3
303.15 K, 35000 kPa | 978.8
303.15 K, 40000 kPa | 981.2
303.15 K, 45000 kPa | 983.6
303.15 K, 50010 kPa | 986
303.15 K, 54980 kPa | 988.3
303.15 K, 60000 kPa | 990.5
303.15 K, 64990 kPa | 992.7
308.15 K, 100 kPa | 956.2
308.15 K, 200 kPa | 956.2
308.15 K, 410 kPa | 956.4
308.15 K, 610 kPa | 956.5
308.15 K, 800 kPa | 956.6
308.15 K, 1000 kPa | 956.7
308.15 K, 2010 kPa | 957.3
308.15 K, 3020 kPa | 957.9
308.15 K, 4000 kPa | 958.5
308.15 K, 5000 kPa | 959.1
308.15 K, 6000 kPa | 959.7
308.15 K, 7020 kPa | 960.3
308.15 K, 8000 kPa | 960.8
308.15 K, 9020 kPa | 961.4
308.15 K, 10000 kPa | 962
308.15 K, 15010 kPa | 964.8
308.15 K, 19990 kPa | 967.6
308.15 K, 25000 kPa | 970.3
308.15 K, 30010 kPa | 973
308.15 K, 35000 kPa | 975.5
308.15 K, 39990 kPa | 978
308.15 K, 44990 kPa | 980.4
308.15 K, 50010 kPa | 982.9
308.15 K, 55000 kPa | 985.2
308.15 K, 60000 kPa | 987.4
308.15 K, 65000 kPa | 989.7
